Converted amounts (≈) assume the structure as drawn. Read-outs that look alike come from different tables or passages of the source.
Columns and labels:
[1] = tested on: Micrococcus luteus (Mb 1101, ATCC 9341); test: Agar diffusion disc assay, Micr 1101; assay type: cell-based; details: Micrococcus luteus; for MIC: read-out: Agar Diffusion MIC versus Micrococcus luteus; for zone of inhibition at 10 µg/disc: 10.0 μg/disc; for zone of inhibition at 40 µg/disc: 40.0 μg/disc; for zone of inhibition at 80 µg/disc: 80.0 μg/disc; for zone of inhibition at 160 µg/disc: 160 μg/disc; for zone of inhibition at 1.25 µg/disc: 1.25 μg/disc; for zone of inhibition at 2.5 µg/disc: 2.50 μg/disc; for zone of inhibition at 5 µg/disc: 5.00 μg/disc
Protocol: (§1) Cultures employed in evaluating antimicrobial activity included plant pathogens, human and animal opportunistic pathogens and selected laboratory strains having specific-antibiotic sensitivities or chromosomal or R-plasmid-mediated resistances. […] The agar diffusion MIC's were determined using the method described by Barry in Anitbiotics in Laboratory Medicine, 2nd Ed., Ed. V. Lorian, pp. 1-63, William & Wilkins, Baltimore, 1986. Each test compound was dissolved in methanol to a concentration of 1 mg/ml. Serial dilutions of these compounds were also made to determine an agar diffusion MIC. 20 μl of each dilution was pipetted on to 6 mm paper discs, air dried and placed onto the surface of an agar plate seeded with the appropriate bacteria (~10^6 cfu). Seeded agar plates were incubated overnight (~18 hours) at 25° C. Zone sizes were measured to the nearest mm. Each compound was tested in triplicate and the results shown represent the mean.

[2] = tested on: Salmonella gallinarum (Mb 1287); test: Agar diffusion disc assay, Salm 1287; assay type: cell-based; details: Salmonella enterica, GALLINARUM, 18 h; @ 20 g/disc; read-out: Inhibition zone diameter, Salm 1287
Protocol: as §1

[3] = tested on: En terobacter aergenes (Mb 835); test: Agar diffusion disc assay, Ent 835; assay type: cell-based; details: 18 h; @ 20 g/disc; read-out: Inhibition zone diameter, Ent 835
Protocol: as §1

[4] = tested on: Streptococcus agalactiae (Mb 2875); test: Agar diffusion disc assay, Str 2875; assay type: cell-based; details: Streptococcus agalactiae, 18 h; @ 20 g/disc; read-out: Inhibition zone diameter, Str 2875
Protocol: as §1

Bacillus sp. (Mb 633) = test: Agar diffusion disc assay, Baci 633; assay type: cell-based; details: Bacillus, 18 h, @ 20 g/disc; read-out: Inhibition zone diameter, Baci 633
Protocol: as §1

CCK-A (rat pancreas) [5] = molecular target: T1, CCK-A (rat pancreas) (Rattus norvegicus, UniProt P30551); test: [3H]L-364,718 CCK-A selective antagonist ligand binding, pancreas; details: read-out: CCK binding inhibition - IC50, [3H]L-364,718
T1 construct: from tissue; host or cells: rat pancreas
T1 sequence (P30551 1-444): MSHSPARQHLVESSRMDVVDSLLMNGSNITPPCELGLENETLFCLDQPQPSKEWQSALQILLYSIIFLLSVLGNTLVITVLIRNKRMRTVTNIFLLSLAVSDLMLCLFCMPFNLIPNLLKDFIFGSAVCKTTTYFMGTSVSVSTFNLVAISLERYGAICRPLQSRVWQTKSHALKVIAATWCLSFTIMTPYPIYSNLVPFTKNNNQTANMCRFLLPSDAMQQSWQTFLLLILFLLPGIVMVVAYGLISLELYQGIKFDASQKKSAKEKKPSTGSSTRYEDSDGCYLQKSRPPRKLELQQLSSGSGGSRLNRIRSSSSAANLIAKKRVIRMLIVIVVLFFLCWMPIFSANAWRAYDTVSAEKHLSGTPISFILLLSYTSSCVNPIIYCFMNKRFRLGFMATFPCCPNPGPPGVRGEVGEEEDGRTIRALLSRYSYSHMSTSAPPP
Protocol: (§2) The resulting supernatant was re-spun at 20,000×g for 20 minutes. […] Incubations were for 40 minutes at 4° C. and were terminated by filtration and washing with ice cold 100 mM saline. […] Incubations were for 30 minutes at room temperature and were terminated by filtration over GF/C filters and washing with 100 mM NaCl.

[6] = tested on: Pseudomonas stutzeri (Mb 1231, ATCC 11607); test: Agar diffusion disc assay, Pseu 1231; assay type: cell-based; details: Stutzerimonas stutzeri, ATCC11607, 18 h; @ 20 g/disc; read-out: Inhibition zone diameter, Pseu 1231
Protocol: as §1

CCK-A (rat pancreas) [7] = molecular target: T1, CCK-A (rat pancreas); test: [125I]BHCCK-8 radioligand binding, rat pancreatic preparation; details: read-out: CCK binding inhibition - IC50, [125I]BHCCK
Protocol: as §2

[8] = tested on: Bacillus subtilis (Mb 964, ATCC 6633); test: Agar diffusion disc assay, Subt 964; assay type: cell-based; details: Bacillus subtilis, ATCC6633, 18 h; @ 20 g/disc; read-out: Inhibition zone diameter, Subt 964
Protocol: as §1

[9] = molecular target: T2, CCK-B (guinea pig cortex) (Cavia porcellus, UniProt H0VZC5); test: [3H]L-365,260 CCK-B selective antagonist ligand binding, brain membranes; details: for IC50: read-out: CCK binding inhibition - IC50, [3H]L-365,260
T2 construct: guinea pig cortical preparations; from tissue; host or cells: guinea pig brain cortex membranes
T2 sequence (H0VZC5 1-426): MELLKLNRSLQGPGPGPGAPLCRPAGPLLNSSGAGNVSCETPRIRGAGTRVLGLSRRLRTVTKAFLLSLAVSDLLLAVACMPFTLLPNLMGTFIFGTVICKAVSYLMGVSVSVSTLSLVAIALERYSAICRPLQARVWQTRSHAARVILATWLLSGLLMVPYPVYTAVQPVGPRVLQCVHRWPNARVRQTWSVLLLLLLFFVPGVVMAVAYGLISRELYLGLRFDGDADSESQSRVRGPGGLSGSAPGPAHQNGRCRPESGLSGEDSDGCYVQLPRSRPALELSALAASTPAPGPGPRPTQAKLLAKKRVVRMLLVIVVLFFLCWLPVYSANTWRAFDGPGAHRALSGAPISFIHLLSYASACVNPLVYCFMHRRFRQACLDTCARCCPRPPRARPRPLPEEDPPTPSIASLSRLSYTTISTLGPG
Protocol: as §2

[10] = tested on: Staphylococcus aureus (Mb 108, ATCC 6538P); test: Agar diffusion disc assay, Sta 108; assay type: cell-based; details: Staphylococcus aureus, ATCC6538P, 18 h; @ 20 g/disc; read-out: Inhibition zone diameter, Sta 108
Protocol: as §1

[11] = tested on: Escherichia coli (Mb 1418); test: Agar diffusion disc assay, Coli 1418; assay type: cell-based; details: Escherichia coli, 18 h; @ 20 g/disc; read-out: Inhibition zone diameter, Coli 1418
Protocol: as §1

[12] = tested on: Streptococcus faecium (Mb 2820); test: Agar diffusion disc assay, Str 2820; assay type: cell-based; details: Enterococcus faecium, 18 h; @ 20 g/disc; read-out: Inhibition zone diameter, Str 2820
Protocol: as §1

[13] = tested on: Staphylococcus aureus (Mb 2983); test: Agar diffusion disc assay, Sta 2983; assay type: cell-based; details: Staphylococcus aureus, 18 h; @ 20 g/disc; read-out: Inhibition zone diameter, Sta 2983
Protocol: as §1

[14] = molecular target: T2, CCK-B (guinea pig cortex); test: [125I]BHCCK-8 radioligand binding, guinea pig cortical preparation; details: read-out: CCK binding inhibition - IC50, [125I]BHCCK
Protocol: as §2

[15] = tested on: Corynebacterium pseudodiphtheriticum (Mb 261, ATCC 9742); test: Agar diffusion disc assay, Cory 261; assay type: cell-based; details: Corynebacterium pseudodiphtheriticum, ATCC9742, 18 h; @ 20 g/disc; read-out: Inhibition zone diameter, Cory 261
Protocol: as §1

[16] = ATCC9341, 18 h, @ 20 g/disc, read-out: Inhibition zone diameter, Micr 1101
[17] = ATCC9341, 25° C., ~18 hours, read-out: Mean of triplicate zone size versus Micrococcus luteus
[18] = ATCC9341, 20.0 μg/disc, 25° C., ~18 hours, read-out: Mean of triplicate zone size versus Micrococcus luteus

SMILES | zone of inhibition at 20 µg/disc [1, 16] [mm] | MIC ([1]; ATCC9341, 18 h) [µM] | zone of inhibition at 10 µg/disc [1, 17] [mm] | zone of inhibition at 20 µg/disc [1, 18] [mm] | zone of inhibition at 20 µg/disc [2] [mm] | zone of inhibition at 20 µg/disc [3] [mm] | zone of inhibition at 20 µg/disc [4] [mm] | zone of inhibition at 20 µg/disc (Bacillus sp. (Mb 633)) [mm] | IC50 (CCK-A (rat pancreas) [5]) [µM] | zone of inhibition at 20 µg/disc [6] [mm] | IC50 (CCK-A (rat pancreas) [7]) [µM] | zone of inhibition at 20 µg/disc [8] [mm] | A.R. = agonist ratio = IC50([3H]L365,260)/IC50([125I]CCK) [9] | IC50 [9] [µM] | zone of inhibition at 20 µg/disc [10] [mm] | zone of inhibition at 20 µg/disc [11] [mm] | zone of inhibition at 20 µg/disc [12] [mm] | zone of inhibition at 20 µg/disc [13] [mm] | IC50 [14] [µM] | zone of inhibition at 20 µg/disc [15] [mm] | other results
CC1=C\[C@@H](OC(=O)c2ccccc2)CC(=O)Cc2nc(co2)C(=O)N2CCC=C2C(=O)O[C@H](C(C)C)[C@H](C)/C=C/C(=O)NC\C=C\1 [Example 6] | 8 | 0.003 (≈ 0.00189 µg/mL) | 10 | 9 | 0 | 0 | 0 | 0 | > 3 | 0 | 2.3 | 0 | 2 | 0.19 | 0 | 0 | 0 | 0 | 0.096 | 0 | zone of inhibition at 40 µg/disc [1, 17]: 10 mm; zone of inhibition at 80 µg/disc [1, 17]: 10 mm; zone of inhibition at 160 µg/disc [1, 17]: 11 mm
CNC(=O)O[C@@H]1/C=C(C)/C=C/CNC(=O)/C=C/[C@@H](C)[C@@H](C(C)C)OC(=O)C2=CCCN2C(=O)c2coc(n2)CC(=O)C1 [Example 7] | 27 | 1.74 (≈ 1.01 µg/mL) | 22 | 25 | 0 | 0 | 16 | 7 | > 3 | 0 | > 3 | 0 | 19 | > 3 | 19 | 0 | 10 | 11 | 0.8 | 22 | zone of inhibition at 1.25 µg/disc [1, 17]: 8 mm; zone of inhibition at 2.5 µg/disc [1, 17]: 13 mm; zone of inhibition at 5 µg/disc [1, 17]: 18 mm; percentage in parentheses beside >3.0, [3H]L-365,260 (inhibition at top concentration, not defined) ([9]; beside IC50 >3.0): 14%
CC1=C\[C@@H](OC(=O)Nc2ccccc2[N+](=O)[O-])CC(=O)Cc2nc(co2)C(=O)N2CCC=C2C(=O)O[C@H](C(C)C)[C@H](C)/C=C/C(=O)NC\C=C\1 [Example 8] | 16 | 0.019 (≈ 0.0131 µg/mL) | 16 | 16 | 0 | 0 | 0 | 0 | > 3 | 0 | > 3 | 0 | 10 | 3.1 | 7 | 0 | 0 | 0 | 0.3 | 9 | zone of inhibition at 1.25 µg/disc [1, 17]: 12 mm; zone of inhibition at 2.5 µg/disc [1, 17]: 15 mm; zone of inhibition at 5 µg/disc [1, 17]: 15 mm
CC1=C\[C@@H](OC(=O)Nc2cccc([N+](=O)[O-])c2)CC(=O)Cc2nc(co2)C(=O)N2CCC=C2C(=O)O[C@H](C(C)C)[C@H](C)/C=C/C(=O)NC\C=C\1 [Example 9] | 8 | 0.82 (≈ 0.566 µg/mL) | 8 | 9 | 0 | 0 | 0 | 0 | > 3 | 0 | > 3 | 0 | 12.9 | 5.2 | 0 | 0 | 0 | 0 | 0.4 | 0 | zone of inhibition at 40 µg/disc [1, 17]: 10 mm; zone of inhibition at 80 µg/disc [1, 17]: 11 mm; zone of inhibition at 160 µg/disc [1, 17]: 11 mm
CC1=C\[C@@H](OC(=O)Nc2ccc([N+](=O)[O-])cc2)CC(=O)Cc2nc(co2)C(=O)N2CCC=C2C(=O)O[C@H](C(C)C)[C@H](C)/C=C/C(=O)NC\C=C\1 [Example 10] | 13 | 3.94 (≈ 2.72 µg/mL) | 10 | 12 | 0 | 0 | 0 | 0 | > 3 | 0 | > 3 | 0 | 8.7 | 13.1 | 9 | 0 | 0 | 0 | 1.6 | 9 | zone of inhibition at 5 µg/disc [1, 17]: 7 mm
